Results: patent publication US6124327A, “HIV integrase inhibitors” (Merck & Co., Inc., priority 1998, dated 2000)

Experiments:
HIV integrase = biological target: T1, HIV integrase (Human immunodeficiency virus type 1 group M subtype B, UniProt P04585); experiment: Strand Transfer Assay for HIV Integrase (microtiter assay, processed donor (HIV) DNA to nonspecific, nicked target DNA); assay type: biochemical; conditions: inhibitor at various concentrations in the range of 1 to 100 μM
T1 construct: HIV integrase
Protocol: Strand Transfer Assay for HIV Integrase
A microtiter assay for strand transfer of processed donor (HIV) DNA to nonspecific, nicked target DNA was conducted according to Wolfe, et al., J. Virol., 70, 1424 (1996), herein incorporated by reference for these purposes. To assay inhibition of such strand transfer by HIV integrase, the reaction was conducted with inhibitor having various concentrations in the range of 1 to 100 μM.

HIV-1 integrase = biological target: T2, HIV-1 integrase (Human immunodeficiency virus type 1 group M subtype B, UniProt P04585); experiment: HIV Integrase Substrate Cleavage (endonucleolytic processing and joining of the 3' end of HIV long terminal repeat terminus; coupled reaction); assay type: biochemical; conditions: inhibitor at various concentrations in the range of 1 to 100 μM
T2 construct: HIV-1 integrase
Protocol: HIV Integrase Substrate Cleavage
As assay for endonucleolytic processing and joining of the 3' end of HIV long terminal repeat terminus by HIV-1 integrase was conducted according to Hazuda, et al., Nud. Acids Res., 22, 1121 (1994), herein incorporated by reference for these purposes. To assay inhibition of the coupled reaction, the assay was conducted with inhibitor having various concentrations in the range of 1 to 100 μM.

Row | SMILES | IC50 (HIV integrase) [µM] | IC50 (HIV-1 integrase) [µM]
1 | CCCC(O)CCCCCCCc1cc(O)cc(O)c1 (centres unmarked) [Compound D] | > 100 | 93
2 | CCC/C=C/CCCCCCc1cc(O)cc(O)c1C(=O)OC(CCC)CCCCCCCc1cc(O)cc(O)c1 (centres unmarked) [Compound C] | > 88 | 3.5
3 | CCCC(O)CCCCCCCc1cc(O)cc(O)c1C(=O)OC(CCC)CCCCCCCc1cc(O)cc(O)c1 (centres unmarked) [Compound B] | 17 | 6.1
4 | CCCC(CCCCCCCc1cc(O)cc(O)c1C(=O)OC(CCC)CCCCCCCc1cc(O)cc(O)c1)OC(C)=O (centres unmarked) [Compound A] | 32 | 3.2
